The values that follow come from ChEMBL document CHEMBL1201862, “PubChem BioAssay data set” (2004).

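In this assay, cells in 96-well plates receive the compound at five concentrations for 48 hours. Endpoints are linearly interpolated between the surrounding concentrations. GI50 is the concentration that inhibits growth by half.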 The source made the active and inactive calls. Cut-off read from the data, not from the text of the source: active = GI50 up to about 1.1 µM and inactive = higher.

Among the test systems are SN12C; NCI-H522; SK-MEL-28; IGROV-1; NCI-H460; SNB-19; HL-60; K562; ACHN; SF-295; SF-539; M14; HOP-92; SR; OVCAR-8; HCT-15; OVCAR-5; RXF 393; TK-10; CCRF-CEM.
What all share (test): growth of human tumour cells (NCI), 48 h

With `COc1ccc(NC(C)=O)cc1N1C(=O)/C(=C\c2cc(OC)c(OC)c(OC)c2)S(=O)(=O)C1c1ccccc1` (stereo not given), the GI50 was 50.8 µM (inactive) in the experiment on SN12C; 45.5 µM (inactive) with NCI-H522; 39.3 µM (inactive) with SK-MEL-28; 98.4 µM (inactive) in the experiment with IGROV-1; 58.9 µM (inactive) with NCI-H460; > 100 µM (inactive) in the experiment with SNB-19. The GI50 in the experiment with HL-60 was 19.3 µM (inactive); in the experiment on K562, 28.5 µM (inactive); in the experiment on ACHN it was 70.5 µM (inactive); in the experiment with SF-295 it was 55 µM (inactive); in the experiment on SF-539 it was > 100 µM (inactive); in the experiment on M14, 69.5 µM (inactive). Moreover, the GI50 in the experiment with HOP-92 is 51.3 µM (inactive); in the experiment with SR, 33 µM (inactive); in the experiment on OVCAR-8, 59.4 µM (inactive); in the experiment on HCT-15, 73.1 µM; in the experiment on OVCAR-5, 23.5 µM (inactive); in the experiment on RXF 393 it was 74.6 µM (inactive). In addition, the GI50 with TK-10 is > 100 µM (inactive); in the experiment on CCRF-CEM, 29.3 µM (inactive).
`CN1CCC2(CC1)SC[C@H]1C(=O)N(c3ccc(Cl)cc3)C(=O)N12`: the GI50 in the experiment on SN12C, in the experiment on NCI-H522, in the experiment on SK-MEL-28, in the experiment with IGROV-1, in the experiment with NCI-H460 and in the experiment on SNB-19 was > 100 µM (inactive) each time. In addition, the GI50 in the experiment with HL-60 was > 100 µM (inactive); with K562, 45.2 µM (inactive); with ACHN it was 25.9 µM (inactive); with SF-295, > 100 µM (inactive); in the experiment with SF-539 it was > 100 µM (inactive); in the experiment on M14, > 100 µM (inactive). The GI50 with HOP-92 is > 100 µM (inactive); with SR it was > 100 µM (inactive); with OVCAR-8, > 100 µM (inactive); with HCT-15, 50.1 µM; with OVCAR-5 it was > 100 µM (inactive); in the experiment with RXF 393, > 100 µM (inactive). Further, the GI50 in the experiment on TK-10 and with CCRF-CEM was > 100 µM (inactive) throughout.
Regarding `O/N=C/c1ncccc1C1OCCO1`, the GI50 with SN12C, with NCI-H522, with SK-MEL-28, in the experiment on IGROV-1, with NCI-H460 and in the experiment with SNB-19 was > 100 µM (inactive) in each case. Besides, the GI50 in the experiment with HL-60, with K562, in the experiment with ACHN, in the experiment on SF-295, in the experiment with SF-539 and in the experiment on M14 was > 100 µM (inactive) in each case. The GI50 was > 100 µM (inactive) in the experiment on HOP-92; > 100 µM (inactive) in the experiment on SR; > 100 µM (inactive) with OVCAR-8; above 100 µM in the experiment with HCT-15; > 100 µM (inactive) in the experiment on OVCAR-5; > 100 µM (inactive) with RXF 393. For the same compound, the GI50 with TK-10 and with CCRF-CEM was > 100 µM (inactive) in each case.
